Laboratory results reported in paper PMC4575187 (PLoS ONE, 2015).
Values after ≈ are worked out from the molar mass of the structure shown. Ends that are not written are not given here.

Tests used:
[1] = test system: influenza A/Aichi/2/68 (H3N2); experiment: microbe, parasite or virus in culture; conditions: H3N2, MDCK, read-out: H3N2 IC50
[2] = test system: influenza A/Aichi/2/68 (H3N2); conditions: /Aichi/2/68, 48 h
MDCK cells [3] = conditions: 4 h
H5N1 pseudovirus = format: cell-based, influenza A virus
[4] = test system: H5N1 pseudovirus (HA and NA of A/Thailand/Kan353/2004)
MDCK cells [5] = conditions: previous work; cited from earlier work
H5 antigen = experiment: Hemagglutination inhibition (HI) assay; conditions: HA-FP-1 at 50 μg/mL, chicken erythrocytes 0.5% v/v, 1 h at room temperature

Compound | H3N2 IC50 [2] [µg/mL] | CC50 with serum (MDCK cells [3]) [µg/mL] | CC50 without serum (MDCK cells [3]) [µg/mL] | further results
NC(=O)c1ncn([C@@H]2O[C@H](CO)[C@@H](O)[C@H]2O)n1 [Ribavirin] |  |  |  | IC50 [1]: 0.63 µg/mL (≈ 2.58 µM)
GLFGAIAGFIKGGWPGLVKG-NH2 [HA-FP-3] | 34.91 ± 4.21 |  |  | 
GLFGAIAGFIKKGWPGLVKG-NH2 [HA-FP-3-1] | 27.57 ± 0.43 | 209.35 ± 0.21 | 174.53 ± 1.90 | 
GLFGAIAGFIKNGWKGMIKG-NH2 [HA-FP-1] | 5.90 ± 0.62 | 143.65 ± 0.63 | 111.70 ± 0.40 | antiviral activity of HA-FP-1 in presence of HA-FP-O (H5N1 pseudovirus): completely abolished; IC50, infection of H5N1 influenza A pseudovirus on MDCK cells ([4]; pseudovirus (HA and NA of A/Thailand/Kan353/2004, 48 h)): 7.05 µg/mL; CC50 against MDCK (MDCK cells [5]): 144.4 µg/mL; inhibition of agglutination of red blood cells (H5 antigen): unable to inhibit
HA-FP-O: indigenous negatively charged fusion peptide of H3 hemagglutinin HA2, 20 residues (GLFGAIAGFIENGWEGMIDG) |  |  |  | inhibition of H5N1 pseudovirus infection (in words) [4]: a lower or no inhibition
